# In US10532979B2, “Phenyldifluoromethyl-substituted prolinamide compound” (ASTELLAS PHARMA INC., priority 2017, dated 2020):
# Structures can show the parent of a compound that is named as a salt.
# Columns and labels:
# [1] = tested on: MHC class II expression in B cells; assay: Inhibitory effect on in vitro MHC class II expression using mouse splenocytes (LPS-stimulated, B220 positive B cells); type: cell-based; conditions: B-cell, C57BL/6J mouse splenocytes, LPS 2 μg/mL, 48 hours, YAe antibody, read-out: Dat2: IC50 value, inhibition of MHC class II expression
# Source text: Test Example 2: Evaluation of Inhibitory Effect on In Vitro MHC Class II Expression Using Mouse Splenocytes (Cell Evaluation System)
# In antigen-presenting cells, inhibition of cathepsin S suppresses expression of MHC class II molecules. As a result, suppression of antigen presentation to CD4-positive T cells causes a deterioration in the immune response to foreign antigens. In regard to an increase in MHC class II expression in B cells, the inhibitory effect of the compound of the formula (I) was examined.
# Splenocytes collected from male C57BL/6J mice (Charles River Laboratories Japan, Inc.) were seeded in a 96-well plate by 1×10^5 cells/well. With RPMI 1640 medium (containing 10% fetal bovine serum (FCS), 5×10^−5 M 2-mercaptoethanol, 50 IU/mL penicillin, and 50 μg/mL streptomycin), 10 mM DMSO solution of the test compound was diluted 5-fold dilution series with 9 steps so that a final concentration becomes […] to 10 μM, or diluted 5-fold dilution series with 12 steps so that a final concentration becomes 0.205 pM to 10 μM (final DMSO concentration is 0.1%), and added. At the same time, LPS (Sigma L4005) was added to the well so that the final concentration becomes 2 μg/mL, and the cells were cultured at 37° C. under 5% CO2 for 48 hours. After culturing, the cells were stained with biotin-labeled YAe antibody (EBIOSCIENCE 13-5741-85) at 4° C. for 20 minutes, and washed. The cells were further stained with FITC fluorochrome labeled anti-mouse B220 antibody (BD BIOSCIENCES 553088) and PE fluorochrome labeled streptavidin (BD BIOSCIENCES 554061) for 20 minutes at 4° C. Therefore, an expression level (fluorescence intensity of YAe-biotin/streptavidin-PE) of MHC class II bound to the Ea peptide in B220 positive B cells was measured by using a flow cytometry system (Guava EasyCyte Plus System, Millipore). An inhibition rate at each concentration was defined by suppressing a value at the time of non-stimulation of LPS without addition of the test compound and a value at the time of stimulation of LPS without addition of the test compound by 100% inhibition and 0% inhibition, respectively, and therefore an IC50 value was calculated by the sigmoid Emax nonlinear regression method. In the table, Ex represents Example compound No., and Dat2 represents the IC50 value (nM).
# [2] = biological target: T1, human cathepsin S (Homo sapiens, UniProt P25774); assay: Measurement of in vitro human cathepsin S inhibitory activity; type: biochemical; conditions: substrate VVR-AMC 40 μM, pH 4.5, 37° C.; read-out: Dat1: IC50 value of human cathepsin S inhibitory activity
# T1 construct: purchased R&D 1183-CY-010
# Method: Test Example 1: Measurement of In Vitro Human Cathepsin S Inhibitory Activity
# To a 96-well plate, 5 μL of human cathepsin S enzyme (R&D 1183-CY-010) was added so as to be 20 ng/well. Next, with assay buffer (50 mM sodium acetate, 250 mM sodium chloride, and 5 mM dithiothreitol (DTT), pH=4.5), a test compound (10 mM DMSO solution) was diluted 10-fold dilution series with 5 steps so that a final concentration becomes 0.1 nM to 1 μM or diluted 3-fold dilution series with 7 steps so that a final concentration becomes 0.01 nM to 10 nM, and 10 μL thereof was added to the well (final DMSO concentration was 0.1%), followed by addition of 25 μL of synthetic substrate VVR-AMC (Peptide Institute 3211-V) so that a final concentration becomes 40 μM, and thereby an enzymatic reaction was initiated. The fluorescence intensity (excitation wavelength: 380 nm, fluorescence wavelength: 460 nm) was measured at 37° C. for 5 to 10 minutes from the start of the reaction using a spectrofluorophotometer (SPECTRAMAX GEMINI, Molecular Devices), and a reaction rate when linearity was recognized (5 minutes) was obtained for each concentration of the test compound. An inhibition rate at each concentration was defined by suppressing a reaction rate at the time of non-addition of an enzyme without adding the test compound and a reaction rate at the time of addition of an enzyme without adding the test compound by 100% inhibition and 0% inhibition, respectively, and therefore an IC50 value was calculated by a sigmoid Emax nonlinear regression method. In the table, Ex represents Example compound No., and Dat1 represents the IC50 value (nM) of human cathepsin S inhibitory activity.
# [3] = tested on: NZB/W F1 mice (SLE-like disease); assay: Inhibitory effect on SLE-like disease onset in spontaneous onset model using NZB/W F1 mice; type: in vivo, mouse; conditions: NZB/W F1 female mice
# Source text: Test Example 4: Evaluation of Inhibitory Effect on SLE-Like Disease Onset in Spontaneous Onset Model Using NZB/W F1 Mice
# NZB/W F1 mice (Japan SLC, Inc.) is used as a model of SLE spontaneously developing a disease condition close to humans (“JAMA”, 1966, Vol. 195, p. 145; “Advances in Immunology”, 1985, Vol. 37, p. 269-390; “Journal of Biomedicine and Biotechnology”, 2011, Vol. 2011, 271694).
# NZB/W F1 female mice were divided into groups according to urine protein values (creatinine corrected value), anti-double stranded DNA (dsDNA) antibody value (IgG) in plasma, an expression level of MHC class II in B cells of peripheral blood, and body weight at age of 19 weeks. At this time, individuals with urine protein values (creatinine corrected value) of 3 or more were excluded. From age of 20 weeks, the test compound was orally administered twice a day, and then urine collection and blood collection were performed over time. The change in urine protein value and anti-dsDNA antibody value over time were evaluated.
# In the above test, anti-dsDNA IgG antibody value in plasma generated in association with SLE-like disease was measured by ELISA method (ALPHA DIAGNOSTIC 5120). In geometric mean values of the antibody value at age of 28 weeks and age of 32 weeks of each individual, a geometric mean value of 10 vehicle-administered subjects was 216662 U/mL, whereas a geometric mean value of 10 subjects administered with 1 mg/kg b.i.d. of the compound of Example 2 was 26827 U/mL, which is a low value having a significant difference (P value=0.0009, Dunnett's multiple comparison). In addition, urine protein values (creatinine corrected value) at age of 40 weeks were measured. A geometric mean value of the 10 vehicle-administered subjects was 13.0, whereas a geometric mean value of the 10 subjects administered with 1 mg/kg b.i.d. of the compound of Example 2 was 0.7, which is a low value having a significant difference (P value=0.0005, Dunnett's multiple comparison).
# [4] = tested on: MHC class II expression in B cells of peripheral blood; assay: Ex vivo MHC class II expression inhibitory effect using mouse peripheral blood after oral administration; type: in vivo; conditions: male C57BL/6J mice, 0.3 mg/kg oral, peripheral blood after 6 hours, LPS 100 μg/mL 15 hours
# Method: Test Example 3: Evaluation of Ex Vivo MHC Class II Expression Inhibitory Effect Using Mouse Peripheral Blood
# The expression inhibitory effect of MHC class II molecules was evaluated in an ex vivo system.
# The test compound was orally administered to male C57BL/6J mice (Charles River Laboratories Japan, Inc.), and an inhibition effect with respect to an increase in the expression of MHC class II in B cells of peripheral blood after oral administration was examined. That is, 10 mL/kg of the test compound dissolved in a vehicle [30% propylene glycol solvent {propylene glycol:hydrogenated castor oil (HCO40): Tween 80=4:2:1}/HCl (2 equivalents to the test compound)/water] was orally administered to male C57BL/6J mice (dose: 0.3 mg/kg, 4 subjects per group), and peripheral blood was recovered after 6 hours. To 90 μL of the peripheral blood, 10 μL of PBS or 10 μL (final concentration 100 μg/mL) of LPS (Sigma L4005) was added, and the culturing was carried out at 37° C. under 5% CO2 for 15 hours. […] After washing, using the flow cytometry system (FACSCanto II, BD BIOSCIENCES), an expression level of MHC class II on a surface of B220 positive B cells was measured with an average fluorescence intensity of FITC (hereinafter referred to as MFI) as an index. […]
# T1 sequence (P25774 115-331): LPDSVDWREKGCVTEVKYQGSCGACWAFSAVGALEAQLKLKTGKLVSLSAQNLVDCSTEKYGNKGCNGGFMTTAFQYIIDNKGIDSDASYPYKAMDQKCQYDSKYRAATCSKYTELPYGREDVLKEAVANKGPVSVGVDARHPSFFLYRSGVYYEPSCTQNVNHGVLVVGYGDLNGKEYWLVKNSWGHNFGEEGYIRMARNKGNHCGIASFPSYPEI
IC50 [1] [nM],IC50 [2] [nM],melting point [°C],SMILES,effect on SLE-like disease onset ([3]; 1 mg/kg b.i.d. oral),"anti-dsDNA IgG antibody value in plasma, geometric mean value ([3]; 1 mg/kg b.i.d. oral from age of 20 weeks, age of 28 weeks and 32 weeks, 10 subjects, vehicle 216662 U/mL, P value=0.0009) [U/mL]","urine protein value (creatinine corrected value), geometric mean value ([3]; 1 mg/kg b.i.d. oral, age of 40 weeks, 10 subjects, vehicle 13.0, P value=0.0005)",inhibition rate of ΔMFI (increase in expression of MHC class II on B220 positive B cells) [4] [%]
0.37,1,,CCN1CCN(Cc2ccc(C(F)(F)[C@@H]3C[C@@H](C(=O)NC4(C#N)CC4)N(C(=O)C4(C(F)(F)F)CC4)C3)c(C(F)(F)F)c2)CC1 [Example 13],,,,
,,134.3,"CN1CCN(Cc2ccc(C(F)(F)[C@@H]3C[C@@H](C(=O)NC4(C#N)CC4)N(C(=O)C4(C)CC4)C3)c(C(F)(F)F)c2)CC1 (as salt: succinate) [Example 18, (4R)—N-(1-cyanocyclopropyl)-4-(difluoro{4-[(4-methylpiperazin-1-yl)methyl]-2-(trifluoromethyl)phenyl}methyl)-1-[(1-methylcyclopropyl)carbonyl]-L-prolinamide]",,,,
0.65,0.81,,"CN1CCN(Cc2ccc(C(F)(F)[C@@H]3C[C@@H](C(=O)NC4(C#N)CC4)N(C(=O)C4(C)CC4)C3)c(C(F)(F)F)c2)CC1 [Example 2, (4R)—N-(1-cyanocyclopropyl)-4-(difluoro{4-[(4-methylpiperazin-1-yl)methyl]-2-(trifluoromethyl)phenyl}methyl)-1-[(1-methylcyclopropyl)carbonyl]-L-prolinamide dihydrochloride]",has the effect of suppressing the SLE-like disease onset,26827,0.7,
0.6,0.43,,CCN1CCN(Cc2ccc(C(F)(F)[C@@H]3C[C@@H](C(=O)NC4(C#N)CC4)N(C(=O)C4(C)CC4)C3)c(C(F)(F)F)c2)CC1 [Example 14],,,,
0.62,1,,"CN1CCN(Cc2ccc(C(F)(F)[C@@H]3C[C@@H](C(=O)NC4(C#N)CC4)N(C(=O)C4(C(F)(F)F)CC4)C3)c(C(F)(F)F)c2)CC1 [Example 4, (4R)—N-(1-cyanocyclopropyl)-4-(difluoro{4-[(4-methylpiperazin-1-yl)methyl]-2-(trifluoromethyl)phenyl}methyl)-1-{[1-(trifluoromethyl)cyclopropyl]carbonyl}-L-prolinamide]",,,,
0.59,0.88,,"CN1CCN(Cc2ccc(C(F)(F)C3C[C@@H](C(=O)NC4(C#N)CC4)N(C(=O)C4(C)CC4)C3)c(C(F)(F)F)c2)CC1 (mixture of isomers) [Example 8, N-(1-cyanocyclopropyl)-4-(difluoro{4-[(4-methylpiperazin-1-yl)methyl]-2-(trifluoromethyl)phenyl}methyl)-1-[(1-methylcyclopropyl)carbonyl]-L-prolinamide dihydrochloride]",,,,41
